Source: ChEMBL document CHEMBL6109139, “Rational Design of the First Dual Agonist at Trace Amine-Associated Receptor 1 and 5-HT2C Receptors Based on Binding Pocket Similarity for the Treatment of Schizophrenia and Alzheimer's Disease-Related Psychosis” (J Med Chem, 2025)
Active and inactive are the calls of the source. The rule behind the calls is not given here.

Tests used:
[1] = target: T1, Trace amine-associated receptor 1 (Homo sapiens) (UniProt Q96RJ0); assay: Agonist activity at human TAAR1 extracted from CHO-K1 cell membrane coexpressing AGTRL1/Gi by measuring maximum efficacy at 0 to 100 uM by cAMP assay relative to control; format: functional, cell membranes; details: dose 0-100 µM
T1 sequence (whole entry): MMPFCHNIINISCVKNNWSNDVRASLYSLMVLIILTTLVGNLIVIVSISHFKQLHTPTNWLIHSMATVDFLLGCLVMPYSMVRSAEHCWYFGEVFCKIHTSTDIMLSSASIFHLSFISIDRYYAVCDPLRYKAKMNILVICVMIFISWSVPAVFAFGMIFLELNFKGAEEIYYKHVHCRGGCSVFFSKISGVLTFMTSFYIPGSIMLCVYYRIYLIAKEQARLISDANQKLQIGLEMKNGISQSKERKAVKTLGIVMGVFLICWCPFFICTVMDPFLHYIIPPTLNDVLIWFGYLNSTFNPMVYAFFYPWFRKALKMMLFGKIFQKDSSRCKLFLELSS

[2] = target: T2, Trace amine-associated receptor 1 (Homo sapiens, UniProt Q96RJ0); assay: Agonist activity at human TAAR1 extracted from CHO-K1 cell membrane coexpressing AGTRL1/Gi by cAMP assay; format: functional, cell membranes
T2 sequence (Q96RJ0 whole entry): T1 sequence (whole entry)

[3] = target: Trace amine-associated receptor 1 (Mus musculus, UniProt Q923Y8); assay: Agonist activity at mouse TAAR1; format: functional
Trace amine-associated receptor 1 (Mus musculus, UniProt Q923Y8), sequence (Q923Y8 whole entry): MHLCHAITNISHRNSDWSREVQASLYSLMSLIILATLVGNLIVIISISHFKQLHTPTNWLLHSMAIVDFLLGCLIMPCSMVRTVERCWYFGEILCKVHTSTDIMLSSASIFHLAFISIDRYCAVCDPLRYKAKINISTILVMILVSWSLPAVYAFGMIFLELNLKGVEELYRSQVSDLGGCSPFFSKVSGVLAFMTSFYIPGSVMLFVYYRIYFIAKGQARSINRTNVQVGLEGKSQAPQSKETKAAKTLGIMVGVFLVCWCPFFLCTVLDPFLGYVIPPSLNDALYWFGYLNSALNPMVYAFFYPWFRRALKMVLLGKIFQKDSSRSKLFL

[4] = target: Trace amine-associated receptor 1 (Mus musculus) (UniProt Q923Y8); assay: Agonist activity at mouse TAAR1 by measuring maximum efficacy relative to control; format: functional; details: filed as agonist
Trace amine-associated receptor 1 (Mus musculus), sequence (Q923Y8 whole entry): as above

[5] = target: Trace amine-associated receptor 1 (Rattus norvegicus, UniProt Q923Y9); assay: Agonist activity at rat TAAR1; format: functional
Trace amine-associated receptor 1 (Rattus norvegicus, UniProt Q923Y9), sequence (Q923Y9 whole entry): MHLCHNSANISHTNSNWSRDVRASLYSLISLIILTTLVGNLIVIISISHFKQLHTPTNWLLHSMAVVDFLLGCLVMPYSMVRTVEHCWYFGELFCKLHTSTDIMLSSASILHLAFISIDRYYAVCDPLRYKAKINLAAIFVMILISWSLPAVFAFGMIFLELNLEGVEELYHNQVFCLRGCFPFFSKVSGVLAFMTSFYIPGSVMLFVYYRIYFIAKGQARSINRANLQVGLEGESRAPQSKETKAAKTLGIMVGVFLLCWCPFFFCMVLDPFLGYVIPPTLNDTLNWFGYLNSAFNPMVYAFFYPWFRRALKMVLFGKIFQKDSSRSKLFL

[6] = target: Trace amine-associated receptor 1 (Rattus norvegicus) (UniProt Q923Y9); assay: Agonist activity at rat TAAR1 by measuring maximum efficacy relative to control; format: functional; details: filed as agonist
Trace amine-associated receptor 1 (Rattus norvegicus), sequence (Q923Y9 whole entry): as above

[7] = target: 5-hydroxytryptamine receptor 2C (Rattus norvegicus) (UniProt P08909); assay: Agonist activity at rat 5-HT2CR by measuring maximum efficacy relative to control; format: functional; details: filed as agonist
5-hydroxytryptamine receptor 2C (Rattus norvegicus), sequence (P08909 whole entry): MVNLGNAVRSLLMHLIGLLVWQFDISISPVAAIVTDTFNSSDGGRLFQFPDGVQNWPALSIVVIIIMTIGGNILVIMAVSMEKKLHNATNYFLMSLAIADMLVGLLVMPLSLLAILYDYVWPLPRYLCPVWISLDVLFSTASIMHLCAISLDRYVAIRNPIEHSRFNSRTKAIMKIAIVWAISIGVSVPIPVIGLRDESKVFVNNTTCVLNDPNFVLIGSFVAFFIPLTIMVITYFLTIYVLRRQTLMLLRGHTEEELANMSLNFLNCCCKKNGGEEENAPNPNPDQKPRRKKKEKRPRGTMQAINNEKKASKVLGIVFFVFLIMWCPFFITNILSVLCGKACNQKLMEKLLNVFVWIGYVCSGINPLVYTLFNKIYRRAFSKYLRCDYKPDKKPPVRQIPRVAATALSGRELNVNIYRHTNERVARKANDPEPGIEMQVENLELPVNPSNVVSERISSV

[8] = tested on: Mus musculus; assay: Antidepressant activity in chronic social defeat stress induced depressive C57BL/6J mouse model assessed as increase in time of interaction zone at 10 mg/kg, IG measured after 15 mins by open field test; format: functional, organism-based
[9] = target: T3, 5-hydroxytryptamine receptor 2C (Homo sapiens) (UniProt P28335); assay: Partial agonist activity at recombinant human 5-HT2CR expressed in HEK293 cells incubated for 2 hrs by measuring maximum efficacy by FLIPR calcium assay relative to control; format: functional, cell-based; details: filed as partial agonist
T3 sequence (whole entry): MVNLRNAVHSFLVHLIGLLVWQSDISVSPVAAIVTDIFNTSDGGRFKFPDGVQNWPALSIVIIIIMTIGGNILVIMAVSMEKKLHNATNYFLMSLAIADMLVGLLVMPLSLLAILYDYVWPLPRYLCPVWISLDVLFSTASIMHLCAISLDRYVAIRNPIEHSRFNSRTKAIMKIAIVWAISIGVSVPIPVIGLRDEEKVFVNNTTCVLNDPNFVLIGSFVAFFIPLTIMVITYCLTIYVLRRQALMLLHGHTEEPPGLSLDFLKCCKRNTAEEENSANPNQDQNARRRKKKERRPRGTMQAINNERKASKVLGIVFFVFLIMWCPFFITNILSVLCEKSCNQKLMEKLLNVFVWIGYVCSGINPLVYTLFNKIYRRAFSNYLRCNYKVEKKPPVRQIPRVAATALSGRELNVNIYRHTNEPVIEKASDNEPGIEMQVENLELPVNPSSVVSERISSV

[10] = tested on: Mus musculus; assay: Antipsychotic activity against MK-801 induced hypermobilization in male C57BL/6J mouse model assessed as reduction in hypermobilization state at 3 mg/kg, IG pretreated with compound followed by MK-801 addition and measured after 30 mins by open field test; format: functional, organism-based
[11] = target: T4, 5-hydroxytryptamine receptor 2C (Homo sapiens, UniProt P28335); assay: Agonist activity at recombinant human 5-HT2CR expressed in HEK293 cells incubated for 2 hrs by FLIPR calcium assay; format: functional, cell-based
T4 sequence (P28335 whole entry): T3 sequence (whole entry)

[12] = target: T3, 5-hydroxytryptamine receptor 2C (Homo sapiens); assay: Agonist activity at recombinant human 5-HT2CR expressed in HEK293 cells incubated for 2 hrs by measuring maximum efficacy by FLIPR calcium assay relative to control; format: functional, cell-based; details: filed as agonist

| Structure (SMILES) | Emax ([1]; filed as agonist) | EC50 [2] | also measured |
| --- | --- | --- | --- |
| COc1ccc(C2CNCCO2)s1 (stereo in doubt; 27b) | 96.9% | – | – |
| c1ccc2sc(C3CNCCO3)cc2c1 (racemic) | 72.1% | 4350 nM | – |
| OCC1OCCc2ccsc21 (stereo in doubt; 15a) [listing 1 of 2 here] | – | > 100000 nM | – |
| FCCOc1ccsc1C1CNCCO1 (racemic) | 46.7% | – | – |
| NCCc1ccc(O)cc1 [TYRAMINE] | 103% | 930 nM | EC50 [3]: 850 nM; Emax [4]: 103%; EC50 [5]: 228 nM; Emax [6]: 99% |
| CCCCCN1CCc2ccsc2C1CN (stereo in doubt; 20b) | – | – | Emax [1]: 15.6% |
| c1cc2c(s1)CCN1CCNCC21 (stereo in doubt; 23a) [listing 1 of 2 here] | – | 14200 nM | – |
| c1cc2c(o1)C1CNCCN1CC2 (stereo in doubt; 22a) [listing 1 of 2 here] | 95.6% | – | – |
| COc1csc(C2CNCCO2)c1 (stereo in doubt; 26b) [listing 1 of 2 here] | 85.6% | – | – |
| NCCc1c[nH]c2ccc(O)cc12 | – | – | Emax [7]: 102% |
| CCCCCN1CCc2ccsc2C1CN (stereo in doubt; 20a) | – | > 30000 nM | – |
| Fc1ccsc1C1CNCCO1 (racemic) | 100% | 252 nM | – |
| Cc1cc2c(s1)Nc1ccccc1N=C2N1CCN(C)CC1 | – | – | Activity [8]: Active |
| COc1ccsc1C1CNCCO1 (stereo in doubt; 25a) | 94.1% | – | Emax [9]: 68.3%; Activity [10]: Active; Similar Effect Compared To Ulotaront |
| c1cc2c(o1)C1CNCCN1CC2 (stereo in doubt; 22a) [listing 2 of 2 here] | – | 36 nM | – |
| c1csc(C2CNCO2)c1 (racemic) | 97% | 6400 nM | – |
| COc1csc(C2CNCCO2)c1 (stereo in doubt; 26b) [listing 2 of 2 here] | – | 2160 nM | – |

| Structure (SMILES) | Emax ([1]; filed as agonist) | EC50 [2] | also measured |
| --- | --- | --- | --- |
| CNCC1NCCc2ccsc21 (stereo in doubt; 17b) | 61.2% | – | – |
| OCC1OCCc2ccsc21 (stereo in doubt; 15a) [listing 2 of 2 here] | – | – | Emax [1]: 1.94% |
| CC(=O)c1ccsc1C1CNCCO1 (stereo in doubt; 36a) | – | > 100000 nM | – |
| c1csc([C@@H]2CNCCO2)c1 | 80.1% | – | EC50 [11]: 3490 nM; Emax [12]: 101% |
| COc1ccccc1C1CNCCO1 (racemic) | 79% | 1390 nM | – |
| CN1CCc2ccsc2C1CN (stereo in doubt; 18b) | 96.5% | – | – |
| CCCN1CCc2ccsc2C1CN (stereo in doubt; 19a) | – | 7970 nM | – |
| COc1ccsc1C1CNCCO1 (stereo in doubt; 25b) | 76.4% | – | – |
| c1cc2c(s1)CCN1CCNCC21 (stereo in doubt; 23a) [listing 2 of 2 here] | 51% | – | – |
| Fc1csc(C2CNCCO2)c1 (racemic) | 107% | – | – |
| CCCN1CCc2ccsc2C1CN (stereo in doubt; 19b) | – | 6930 nM | – |
| c1cc(C2CC2)c(C2CNCCO2)s1 (racemic) | 98.6% | – | – |
| CN1CCc2ccsc2C1CN (stereo in doubt; 18a) | – | – | Emax [1]: 18.9% |
| CNCC1OCCc2ccoc21 (racemic) | 105% | – | – |
| CNCC1SCCc2ccsc21 (stereo in doubt; 16b) | – | 522 nM | – |
| c1cc2c(s1)CCN1CCNCC21 (stereo in doubt; 23b) | – | 1030 nM | – |
